In patent US10287298B2, “Nitrogen-containing analogs of salinomycin, synthesis and use against cancer stem cells and malaria” (Centre National de la Recherche Scientifique (CNRS), priority 2014, dated 2019):
pIC50: −log10 of the molar value. “Also recorded” adds a separate entry of the source. Where two headings read alike, the source gives them in different places.

Legend:
HMLER CD24+ cells = assay: Cell viability assay (CellTiter-Blue), IC50 assessment; type: cell-based; details: Homo sapiens, read-out: IC50 CD24+
Experimental: FIG. 1 represents viability of HMLER CD24− cells (full line) and HMLER CD24+ cells (dotted line) at different concentration of salinomycine (1A), AM5 […] or AM13 (1D).
Cell viability assay was carried out by plating 1000 cells per well in 96-well plates. NAC (2 mM, A9165 Sigma) or DFO (1 mM) were pretreated 2 hours prior to the compound treatment. CellTiter-Blue® Reagent (Promega; G3582) (20 μl/well) was added after 24, 48, or 72 hours treatment and cells were incubated for 1 hour before recording fluorescence (560(20)Ex/590(10)Em) using a Perkin Elmer Wallac 1420 Victor2 Microplate Reader.

BT474 = assay: Cell death IC50, Annexin V-FITC/PI flow cytometry; type: cell-based; details: Homo sapiens, read-out: IC50 BT474
Experimental: The cells were seeded in a 6-well plate at density 5.105 cells/well and cultured overnight. The cells were then treated with various concentration (15, 30, 100, 500, 1000 and 10.000 nM) of salinomycine, AM5 and AM23 for 72 h, 96 h and 108 h. After treatment, cell death was quantified using Annexin V-FITC/Propidium Iodide (PI) assay according to the manufacturer's protocol (FITC Annexin V Apoptosis Detection Kit II, 556570, BD Pharmingen™) and analyzed by a LSRFortessa™ flow cytometer (BD Bioscience, San Jose, Calif.). The data were processed using Cell Quest software (BD Biosciences). Dose-response cell death curves were determined for indicated time.
For tumor cells, the cells are classified in function of their sensitivity of drugs. Here, the most sensitive cells are incubated for 72 h, the middle sensitive cells for 96 h and the less sensitive or resistant cells are incubated for 108 h with drug at several concentrations.
Concentrations of 30 nM, 500 nm and 1 μM were used for determining the IC50 of drugs.
Intervals][…]] mean that IC50 is included in this interval with exclusion of the valor 30 nM.

MCF-7 xenograft = assay: Xenograft tumor formation; type: in vivo, mice; details: 3 mg per kg body weight per day, intra peritoneal
Experimental: Human breast cancer cell line MCF-7 cells cultures were collected, enzymatically dissociated, washed in PBS, and resuspended in PBS/Matrigel mixture (1:1 volume). 0.1 ml of this mixture was then implanted in the mammary fat pad of 5-week-old female AthymicNude-Fox1nu mice (Harlan, France). The mice were maintained in individually-ventilated cages (Tecniplast, France) under constant temperature and humidity; all experiments were performed under laminar flow (Tecniplast France). The mice received estradiol supplementation (0.4 mg/kg) in the same day and 7th day from cell injection, and were observed and palpated for tumor appearance. The mice received Salinomycine analogue (here AM5, 3 mg per kg body weight per day, intra peritoneal injection) every 5 opened days of the week for 33 days. Tumor growth was measured weekly using calipers. Tumor volume was determined using the standard formula: L×W2×0.52, where L and W are the longest and shortest diameters, respectively. […]
Xenograft tumor formation experiments: MCF-7 cell cultures were collected, enzymatically dissociated, washed with PBS, and re-suspended in a PBS/Matrigel mixture (1:1 v/v). […] Tumor growth was measured weekly using calipers. Tumor volume was determined using the standard formula: L×W2×0.52, where L and W are the longest and shortest diameters, respectively. […]

MDA-MB-231 cells = assay: Dead cells by DIOC6(3)/DAPI test with cathepsine B inhibitor; type: cell-based, Human; details: 500 nM; COA74-Me 30 μM; 48 h, 96 h, 108 h
Experimental: From the treatment, dead cells were assessed by DIOC6(3)/DAPI test and analyzed by flow cytometry.

HMLER CD24low cells = assay: Intracellular sodium measurement (SBFI-AM); type: cell-based, Human; details: 5 min treatment
Experimental: Intracellular sodium measurement: Sodium and potassium buffers (10 mM HEPES, 1 mM CaCl2, 1 mM MgCl2, 130 mM Sodium-D-Gluconate or Potassium-D-Gluconate, 30 mM NaCl/KCl) were mixed at different ratios to produce five buffers with various sodium concentrations (0, 20, 40, 80, 160 mM). Nigericin (N7143, Sigma, 10 μM) and monensin (M5273, Sigma, 10 μM) were used to equilibrate the intracellular sodium concentration and establish a calibration curve. HMLER CD24low cells were harvested and re-suspended in ECS buffer (15 mM HEPES, 5.4 mM KCl, 140 mM NaCl, 10 mM Glucose, 1 mM MgCl2, 1.8 mM CaCl2, 0.1% BSA, pH 7.6) containing 10 μM of the sodiumspecific probe (SBFI-AM, S-1263, Molecular Probes®) and 0.2% Pluronic F-127 (P2443, Sigma) and were incubated for 1 h in the dark at 37° C. Then, cells were washed to remove excess dye and incubated for an additional 30 min in ECS buffer. […] Each well was sequentially excited at 340 and 370 nm and emission was recorded at 500 nm. The spectral response of SBFI upon sodium binding was assessed by excitation ratio measurement (340/370 nm). Measurements were performed on a Perkin Elmer Wallac 1420 Victor2 Microplate Reader at 37° C.

Compound	pIC50 (HMLER CD24+ cells; HMLER CD24+ cells, cell viability)	pIC50 (BT474; BT-474, 2nd sensibility (96 h))	tumor volume and tumor weight (MCF-7 xenograft; 33 days)	tumor growth (MCF-7 xenograft; MCF-7 xenograft-bearing mice)	death of MDA-MB-231 cells in combination with cathepsine B inhibition (MDA-MB-231 cells)	pIC50 (HMLER CD24+ cells)	pIC50 (BT474; BT-474, 96 h)	intracellular sodium (HMLER CD24low cells)
C#CCN[C@@H]1C=C[C@]2(O[C@H]([C@@H](CC)C(=O)[C@@H](C)[C@@H](O)[C@H](C)C3O[C@@H](C(CC)C(=O)O)CC[C@@H]3C)[C@@H](C)C[C@H]2C)O[C@@]12CC[C@@](C)([C@H]1CC[C@](O)(CC)[C@H](C)O1)O2 (stereo partly drawn) [AM5, Sal-Propargylamine]	5.45	< 6.00	lower	inhibits breast cancer tumor growth; also recorded: prevented tumor growth	combine themselves to induce the death	–	–	–
CCC(C(=O)O)[C@H]1CC[C@H](C)C([C@@H](C)[C@H](O)[C@H](C)C(=O)[C@H](CC)[C@H]2O[C@]3(C=C[C@@H](O)[C@]4(CC[C@@](C)([C@H]5CC[C@](O)(CC)[C@H](C)O5)O4)O3)[C@H](C)C[C@@H]2C)O1 (stereo partly drawn) [Salinomycine, Salinomycin]	–	–	–	–	combine themselves to induce the death	4.96	< 6.00	induced a fast increase in intracellular sodium
